According to PMC8844075 (Nature Communications, 2022):
Read-outs that look alike come from different tables or passages of the source.

Tests used:
[1] = system: Gi1 heterotrimer with NPY-bound Y1R; experiment: GTP turnover assay; format: biochemical, human
Experimental: GTP turnover assay was performed using GTPase-Glo assay kit (Promega)[22]. […] NPY-bound Y1R (4 μM) was mixed with 1 μM Gi1 heterotrimer (containing Gαi produced from E. coli or Sf9 cells) in an assay buffer consisting of 20 mM HEPES pH 8.0, 150 mM NaCl, 0.03% DDM, 0.003% CHS, 100 μM TCEP, 5 μM GDP, and 2.5 μM GTP. After incubation for 3 h, reconstituted GTPase-Glo reagent was added to the sample and incubated for 30 min at room temperature. Then, detection reagent was mixed and incubated for 10 min at room temperature. Luminescence was measured using a FlexStation 3 multi-mode microplate reader (Molecular Devices) and data were analyzed by GraphPad Prism 9.2.0.

wild-type Y1R / Gi1 = experiment: BRET Gi1 recruitment assay, wild-type Y1R; format: cell-based, human; details: result in words
Experimental: Forty-eight hours of post-transfection, cells were detached with PBS supplemented with 20 mM EDTA and evenly spread into white 96-well microplates (SPL). […] All BRET data were collected using a Mithras LB940 instrument (Berthold), and graphs were plotted using GraphPad Prism 9.2.0.
each sample represent the mean and S.E.M. (standard error of mean) of n=six independent experiments, respectively. Each circle represents an individual data point from the experiment.

Y1R = details: cited from earlier work
[2] = alanine mutants of NPY, ref [10],[26]

Substance: Gi1 (Sf9): purified Gi1 heterotrimer containing Gαi1 produced from Sf9 insect cells
- reduced luminescence signal (GTP hydrolytic activity) ([1]; GTPase-Glo, 1 μM Gi1, 4 μM NPY-bound Y1R, 3 h, three independent experiments): 95.1%

Substance: Gi (sf9)
- GTP turnover ([1]; 1st, Buffer 7216.3): 2592.3
- GTP turnover ([1]; 2nd, Buffer 7401.3): 2856.7
- GTP turnover ([1]; 3rd, Buffer 7365.4): 2743.4

Substance: NPY-COOH: carboxyl-NPY (NPY-COOH), non-amidated NPY
- Gi1 recruitment (wild-type Y1R / Gi1): does not induce recruitment of Gi1

Substance: R33A: R33A mutation of NPY
- Y1R binding (Y1R; [2]): most severe defects in Y1R binding

Substance: R35A: R35A mutation of NPY
- Y1R binding (Y1R; [2]): most severe defects in Y1R binding

Substance: Y1R
- GTP turnover ([1]; 1st, Buffer 7216.3): 7542.9
- GTP turnover ([1]; 2nd, Buffer 7401.3): 7352.2
- GTP turnover ([1]; 3rd, Buffer 7365.4): 7960.2

Substance: Y36A: Y36A mutation of NPY
- Y1R binding (Y1R; [2]): loss of binding to Y1R

Substance: Y36F: Y36F mutation of NPY
- Y1R binding (Y1R; NPY mutant, ref [26]): relatively mild effect on Y1R binding
